Data: ChEMBL document CHEMBL2424545, “Structure-efficiency relationship of [1,2,4]triazol-3-ylamines as novel nicotinamide isosteres that inhibit tankyrases” (J Med Chem, 2013)
pIC50: −log10 of the molar value. Converted amounts (≈) assume the structure as drawn.

Target: Poly [ADP-ribose] polymerase 2 (Homo sapiens, UniProt Q9UGN5)
Test: Inhibition of PARP2 (unknown origin) after 60 mins by LC-MS analysis
Conditions: not given

Sequence of Poly [ADP-ribose] polymerase 2 (Q9UGN5 whole entry): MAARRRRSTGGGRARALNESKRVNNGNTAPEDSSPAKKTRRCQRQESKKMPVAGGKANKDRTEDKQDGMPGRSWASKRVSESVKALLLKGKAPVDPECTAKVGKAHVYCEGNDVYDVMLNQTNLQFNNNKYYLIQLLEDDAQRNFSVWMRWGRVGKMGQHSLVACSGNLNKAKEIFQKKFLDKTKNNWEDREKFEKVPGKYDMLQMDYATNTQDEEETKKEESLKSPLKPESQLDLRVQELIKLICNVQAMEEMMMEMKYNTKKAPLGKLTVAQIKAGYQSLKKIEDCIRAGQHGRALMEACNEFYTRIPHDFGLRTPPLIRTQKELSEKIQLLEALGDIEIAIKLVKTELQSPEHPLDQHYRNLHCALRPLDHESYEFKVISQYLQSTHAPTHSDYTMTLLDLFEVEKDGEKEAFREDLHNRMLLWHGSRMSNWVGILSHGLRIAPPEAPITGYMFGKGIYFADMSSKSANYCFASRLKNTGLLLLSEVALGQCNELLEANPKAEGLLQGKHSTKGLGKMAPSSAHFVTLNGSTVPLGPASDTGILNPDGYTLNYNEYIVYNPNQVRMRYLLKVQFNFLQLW

| Compound | pIC50 |
| --- | --- |
| CC(C)(C)c1ccc(C(=O)Nc2nnc3n2CCS3)cc1 | < 4.72 |
| CC(C)(C)c1ccc(C(=O)Nc2nnc3n2CCCS3)cc1 | < 4.72 |
| O=C(CCc1c(Cl)cccc1Cl)Nc1nnc2n1CCS2 | < 4.72 |
| O=C(CCc1cccc(Cl)c1Cl)Nc1nnc2n1CCS2 | 5.42 |
| O=C(CCc1ccc(Cl)cc1Cl)Nc1nnc2n1CCS2 | 5.33 |

Test system: not listed separately
Test: Volume of distribution in iv dosed Sprague-Dawley rat
Type: ADME, organism-based
Conditions: in vivo

| Compound | Vd [L/kg] |
| --- | --- |
| O=C(CCc1c(Cl)cccc1Cl)Nc1nnc2n1CCS2 | 1.1 |

Target: Poly [ADP-ribose] polymerase 1 (Homo sapiens, UniProt P09874)
Test: not given
Conditions: not given

Sequence of Poly [ADP-ribose] polymerase 1 (P09874 whole entry): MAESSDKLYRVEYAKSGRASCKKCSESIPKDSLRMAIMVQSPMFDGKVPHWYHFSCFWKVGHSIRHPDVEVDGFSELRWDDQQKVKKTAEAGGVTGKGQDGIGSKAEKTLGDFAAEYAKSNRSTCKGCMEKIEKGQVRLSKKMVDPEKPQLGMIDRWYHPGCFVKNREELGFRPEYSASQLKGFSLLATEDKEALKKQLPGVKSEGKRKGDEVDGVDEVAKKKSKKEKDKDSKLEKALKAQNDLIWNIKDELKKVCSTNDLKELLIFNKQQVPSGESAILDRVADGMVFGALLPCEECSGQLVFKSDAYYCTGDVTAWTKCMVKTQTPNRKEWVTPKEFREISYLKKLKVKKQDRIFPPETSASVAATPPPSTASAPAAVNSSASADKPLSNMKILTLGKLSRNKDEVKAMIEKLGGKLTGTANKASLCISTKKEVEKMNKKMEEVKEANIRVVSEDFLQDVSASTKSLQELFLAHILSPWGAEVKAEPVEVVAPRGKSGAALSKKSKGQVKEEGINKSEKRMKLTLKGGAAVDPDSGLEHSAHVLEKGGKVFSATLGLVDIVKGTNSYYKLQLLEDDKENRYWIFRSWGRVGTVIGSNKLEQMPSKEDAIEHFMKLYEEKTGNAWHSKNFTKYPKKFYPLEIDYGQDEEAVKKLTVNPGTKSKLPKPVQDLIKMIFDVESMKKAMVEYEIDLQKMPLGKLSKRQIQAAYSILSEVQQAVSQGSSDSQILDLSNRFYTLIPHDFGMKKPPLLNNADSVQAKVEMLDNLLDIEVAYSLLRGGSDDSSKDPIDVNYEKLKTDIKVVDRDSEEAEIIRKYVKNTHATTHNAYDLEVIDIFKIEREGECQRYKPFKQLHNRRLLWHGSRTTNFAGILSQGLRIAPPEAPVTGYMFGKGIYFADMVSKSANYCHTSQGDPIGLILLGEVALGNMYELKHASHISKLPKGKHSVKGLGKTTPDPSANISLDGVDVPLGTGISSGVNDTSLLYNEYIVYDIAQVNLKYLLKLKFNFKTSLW

| Compound | pIC50 |
| --- | --- |
| O=C(CCc1c(Cl)cccc1Cl)Nc1nnc2n1CCS2 | < 4.72 |
| O=C(CCc1cccc(Cl)c1Cl)Nc1nnc2n1CCS2 | < 4.72 |
| O=C(CCc1ccc(Cl)cc1Cl)Nc1nnc2n1CCS2 | < 4.72 |

Test system: not listed separately
Test: Inhibition of Wnt signaling in human HEK293 cells by STF luciferase reporter gene assay
Conditions: not given

| Compound | pIC50 |
| --- | --- |
| Oc1nc(-c2ccc(C(F)(F)F)cc2)nc2c1CSCC2 | 7.11 |
| O=C(Cc1ccccc1)Nc1nnc2n1CCS2 | 5.14 |
| CC(C)(C)c1ccc(C(=O)Nc2nnc3n2CCS3)cc1 | 5.62 |
| Cc1n[nH]c(C)c1CCC(=O)Nc1nnc2n1CCS2 | < 5.00 |
| CC(C)(C)c1ccc(C(=O)Nc2nnc3n2CCCS3)cc1 | 4.32 |
| O=C(Nc1nnc2n1CCS2)C1CC1 | < 4.30 |
| O=C(Nc1nnc2n1CCS2)C1CCC1 | 4.86 |
| O=C(Nc1nnc2n1CCS2)C1CCCC1 | 4.89 |
| O=C(Nc1nnc2n1CCS2)C1CCCCC1 | 5.81 |
| O=C(CC1CCCCC1)Nc1nnc2n1CCS2 | 6.37 |
| O=C(CC1CCOCC1)Nc1nnc2n1CCS2 | 4.99 |
| O=C(CCC1CCCC1)Nc1nnc2n1CCS2 | 6.71 |
| O=C(CCC1CCCCC1)Nc1nnc2n1CCS2 | 6.77 |
| O=C(CCC1CCCCCC1)Nc1nnc2n1CCS2 | 5.66 |
| O=C(CCc1c(Cl)cccc1Cl)Nc1nnc2n1CCS2 | 7.54 |
| O=C(CCc1cccc(Cl)c1Cl)Nc1nnc2n1CCS2 | 7.70 |
| O=C(CCc1ccc(Cl)cc1Cl)Nc1nnc2n1CCS2 | 6.94 |

Test system: not listed separately
Test: Hepatic extraction ratio in human liver microsomes
Type: ADME, Microsome
Conditions: read-out: ERH

| Compound | hepatic extraction ratio |
| --- | --- |
| CC(C)(C)c1ccc(C(=O)Nc2nnc3n2CCS3)cc1 | 0.36 |
| O=C(CCC1CCCC1)Nc1nnc2n1CCS2 | 0.68 |
| O=C(CCC1CCCCC1)Nc1nnc2n1CCS2 | 0.2 |
| O=C(CCc1c(Cl)cccc1Cl)Nc1nnc2n1CCS2 | 0.61 |

Target: T1, Poly [ADP-ribose] polymerase tankyrase-1 (Homo sapiens, UniProt O95271)
T1 sequence (O95271 whole entry): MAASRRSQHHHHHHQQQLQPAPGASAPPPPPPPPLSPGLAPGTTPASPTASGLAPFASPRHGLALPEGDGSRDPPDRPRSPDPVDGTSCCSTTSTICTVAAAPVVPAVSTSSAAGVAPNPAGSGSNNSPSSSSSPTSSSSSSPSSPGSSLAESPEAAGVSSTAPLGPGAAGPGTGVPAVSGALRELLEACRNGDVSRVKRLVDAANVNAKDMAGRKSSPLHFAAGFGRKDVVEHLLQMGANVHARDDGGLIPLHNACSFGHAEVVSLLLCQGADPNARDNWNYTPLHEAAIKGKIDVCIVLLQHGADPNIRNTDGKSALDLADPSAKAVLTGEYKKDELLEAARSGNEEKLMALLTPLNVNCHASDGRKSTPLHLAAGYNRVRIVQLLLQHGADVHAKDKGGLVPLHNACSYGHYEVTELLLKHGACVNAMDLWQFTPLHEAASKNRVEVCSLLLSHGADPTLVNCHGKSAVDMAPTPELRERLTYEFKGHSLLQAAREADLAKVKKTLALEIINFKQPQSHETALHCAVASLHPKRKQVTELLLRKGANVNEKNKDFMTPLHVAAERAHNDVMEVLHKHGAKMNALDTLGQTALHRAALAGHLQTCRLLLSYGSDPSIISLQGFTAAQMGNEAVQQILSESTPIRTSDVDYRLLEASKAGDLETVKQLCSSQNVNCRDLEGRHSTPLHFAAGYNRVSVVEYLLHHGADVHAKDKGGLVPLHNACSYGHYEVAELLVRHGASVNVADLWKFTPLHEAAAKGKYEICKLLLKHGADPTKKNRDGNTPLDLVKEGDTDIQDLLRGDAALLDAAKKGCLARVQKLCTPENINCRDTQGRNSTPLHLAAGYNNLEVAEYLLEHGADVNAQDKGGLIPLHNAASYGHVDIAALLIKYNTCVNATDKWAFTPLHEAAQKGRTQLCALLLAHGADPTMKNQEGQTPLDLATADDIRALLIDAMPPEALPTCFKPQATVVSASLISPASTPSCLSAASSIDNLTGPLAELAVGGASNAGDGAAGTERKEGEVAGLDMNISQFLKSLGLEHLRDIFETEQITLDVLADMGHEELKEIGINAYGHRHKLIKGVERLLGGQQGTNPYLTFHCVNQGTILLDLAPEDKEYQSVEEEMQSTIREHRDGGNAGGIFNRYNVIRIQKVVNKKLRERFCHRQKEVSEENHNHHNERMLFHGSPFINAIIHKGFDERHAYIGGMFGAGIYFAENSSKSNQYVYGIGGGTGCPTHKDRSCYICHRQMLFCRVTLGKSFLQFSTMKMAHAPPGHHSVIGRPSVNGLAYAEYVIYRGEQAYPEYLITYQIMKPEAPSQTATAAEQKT
Test: Inhibition of N-terminal GST-tagged human TNKS1 expressed in baculovirus infected sf21 cells after 60 mins by LC-MS analysis
Conditions: not given

| Compound | pIC50 |
| --- | --- |
| CC(C)(C)c1ccc(C(=O)Nc2nnc3n2CCS3)cc1 | 6.52 |
| O=C(CCC1CCCC1)Nc1nnc2n1CCS2 | 7.55 |
| O=C(CCC1CCCCC1)Nc1nnc2n1CCS2 | 7.49 |
| O=C(CCc1c(Cl)cccc1Cl)Nc1nnc2n1CCS2 | 7.92 |
| O=C(CCc1cccc(Cl)c1Cl)Nc1nnc2n1CCS2 | 8.15 |
| O=C(CCc1ccc(Cl)cc1Cl)Nc1nnc2n1CCS2 | 7.62 |

Test system: not listed separately
Test: Hepatic extraction ratio in mouse liver microsomes
Type: ADME, Microsome
Conditions: read-out: ERH

| Compound | hepatic extraction ratio |
| --- | --- |
| CC(C)(C)c1ccc(C(=O)Nc2nnc3n2CCS3)cc1 | 0.84 |
| O=C(CCC1CCCC1)Nc1nnc2n1CCS2 | 0.91 |
| O=C(CCC1CCCCC1)Nc1nnc2n1CCS2 | 0.95 |
| O=C(CCc1c(Cl)cccc1Cl)Nc1nnc2n1CCS2 | 0.91 |
| O=C(CCc1cccc(Cl)c1Cl)Nc1nnc2n1CCS2 | 0.92 |
| O=C(CCc1ccc(Cl)cc1Cl)Nc1nnc2n1CCS2 | 0.91 |

Target: T2, Poly [ADP-ribose] polymerase tankyrase-2 (Homo sapiens, UniProt Q9H2K2)
T2 sequence (Q9H2K2 whole entry): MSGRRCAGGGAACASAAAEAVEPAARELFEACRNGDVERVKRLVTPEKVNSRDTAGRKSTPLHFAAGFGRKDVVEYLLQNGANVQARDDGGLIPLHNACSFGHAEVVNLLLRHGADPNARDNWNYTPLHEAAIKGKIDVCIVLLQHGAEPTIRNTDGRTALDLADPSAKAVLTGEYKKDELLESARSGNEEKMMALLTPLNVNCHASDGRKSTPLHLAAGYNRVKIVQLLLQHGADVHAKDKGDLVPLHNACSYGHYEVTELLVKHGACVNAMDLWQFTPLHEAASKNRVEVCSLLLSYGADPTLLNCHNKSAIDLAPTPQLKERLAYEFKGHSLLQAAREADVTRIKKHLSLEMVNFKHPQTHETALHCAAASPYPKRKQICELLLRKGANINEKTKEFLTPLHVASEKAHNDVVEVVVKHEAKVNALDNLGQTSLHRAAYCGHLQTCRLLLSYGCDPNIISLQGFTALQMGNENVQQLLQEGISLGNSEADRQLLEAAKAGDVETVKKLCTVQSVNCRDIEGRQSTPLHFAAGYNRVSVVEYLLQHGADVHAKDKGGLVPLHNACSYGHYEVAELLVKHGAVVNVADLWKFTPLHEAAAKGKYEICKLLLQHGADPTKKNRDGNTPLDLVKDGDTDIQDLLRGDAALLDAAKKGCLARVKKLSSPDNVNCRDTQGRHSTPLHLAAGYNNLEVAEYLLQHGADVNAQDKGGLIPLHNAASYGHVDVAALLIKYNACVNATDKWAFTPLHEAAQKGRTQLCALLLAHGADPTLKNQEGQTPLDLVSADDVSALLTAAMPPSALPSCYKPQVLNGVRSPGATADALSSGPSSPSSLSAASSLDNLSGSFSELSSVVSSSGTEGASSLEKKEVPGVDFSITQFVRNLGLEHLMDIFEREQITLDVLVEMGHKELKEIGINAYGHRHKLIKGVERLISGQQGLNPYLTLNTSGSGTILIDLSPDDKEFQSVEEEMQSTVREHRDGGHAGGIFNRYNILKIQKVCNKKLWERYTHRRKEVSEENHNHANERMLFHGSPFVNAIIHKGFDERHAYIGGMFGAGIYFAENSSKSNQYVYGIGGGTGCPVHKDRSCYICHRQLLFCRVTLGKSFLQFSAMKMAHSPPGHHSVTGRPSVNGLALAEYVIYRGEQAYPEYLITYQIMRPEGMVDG
Test: Inhibition of N-terminal GST-tagged TNKS2 (unknown origin) expressed in baculovirus infected sf21 cells after 60 mins by LC-MS analysis
Conditions: not given

| Compound | pIC50 |
| --- | --- |
| O=C(Cc1ccccc1)Nc1nnc2n1CCS2 | 6.62 |
| CC(C)(C)c1ccc(C(=O)Nc2nnc3n2CCS3)cc1 | 7.51 |
| Cc1n[nH]c(C)c1CCC(=O)Nc1nnc2n1CCS2 | 6.71 |
| CC(C)(C)c1ccc(C(=O)Nc2nnc3n2CCCS3)cc1 | 6.45 |
| O=C(Nc1nnc2n1CCS2)C1CC1 | 5.70 |
| O=C(Nc1nnc2n1CCS2)C1CCC1 | 6.58 |
| O=C(Nc1nnc2n1CCS2)C1CCCC1 | 6.66 |
| O=C(Nc1nnc2n1CCS2)C1CCCCC1 | 7.15 |
| O=C(CC1CCCCC1)Nc1nnc2n1CCS2 | 7.70 |
| O=C(CC1CCOCC1)Nc1nnc2n1CCS2 | 6.69 |
| O=C(CCC1CCCC1)Nc1nnc2n1CCS2 | 8.05 |
| O=C(CCC1CCCCC1)Nc1nnc2n1CCS2 | 8.10 |
| O=C(CCC1CCCCCC1)Nc1nnc2n1CCS2 | 7.59 |
| O=C(CCc1c(Cl)cccc1Cl)Nc1nnc2n1CCS2 | 8.52 |
| O=C(CCc1cccc(Cl)c1Cl)Nc1nnc2n1CCS2 | 9.00 |
| O=C(CCc1ccc(Cl)cc1Cl)Nc1nnc2n1CCS2 | 8.30 |

Test system: not listed separately
Test: Solubility of the compound at pH 6.8
Type: physicochemical
Conditions: buffer

| Compound | solubility [µM] |
| --- | --- |
| CC(C)(C)c1ccc(C(=O)Nc2nnc3n2CCS3)cc1 | > 100 |
| O=C(CCC1CCCC1)Nc1nnc2n1CCS2 | 630 (≈ 168 µg/mL) |
| O=C(CCC1CCCCC1)Nc1nnc2n1CCS2 | 520 (≈ 146 µg/mL) |
| O=C(CCc1c(Cl)cccc1Cl)Nc1nnc2n1CCS2 | 16 (≈ 5.49 µg/mL) |

Test system: not listed separately
Test: Inhibition of TNKS in human SW480 cells assessed as stabilization of axin2 after 24 hrs by ELISA
Type: cell-based
Conditions: not given

| Compound | pIC50 |
| --- | --- |
| CC(C)(C)c1ccc(C(=O)Nc2nnc3n2CCS3)cc1 | < 5.00 |
| O=C(CCC1CCCC1)Nc1nnc2n1CCS2 | 5.51 |
| O=C(CCC1CCCCC1)Nc1nnc2n1CCS2 | < 5.00 |
| O=C(CCc1c(Cl)cccc1Cl)Nc1nnc2n1CCS2 | 6.42 |
| O=C(CCc1cccc(Cl)c1Cl)Nc1nnc2n1CCS2 | < 5.00 |
| O=C(CCc1ccc(Cl)cc1Cl)Nc1nnc2n1CCS2 | < 5.00 |

Test system: not listed separately
Test: Plasma clearance in iv dosed Sprague-Dawley rat
Type: ADME, organism-based
Conditions: not given

| Compound | clearance [mL/min/kg] |
| --- | --- |
| O=C(CCc1c(Cl)cccc1Cl)Nc1nnc2n1CCS2 | 45.6 |
